According to patent publication US20080021004A1, “Sapogenin derivatives and their use in the treatment of cognitive dysfunction” (PHYTOPHARM PLC, priority 1999, published 2008):

Tested on: m2 receptors on CHO cells
Experiment: Expression of m2 receptors on transfected CHO cells (tritiated QNB binding)
Type: cell-based, human
Settings: DMSO control
Source text: Sapogenin derivatives of the present invention have also been tested for activity in a number of in-vitro assays. The assays/experiments that were considered of key importance in determining possible activity in the elevation of membrane bound receptor numbers were as follows: • Chinese hamster ovary (CHO) cells transfected with the DNA fragment coding for a muscarinic receptor. The cell line used for the majority of the experiments was a cell line expressing the m2 receptor.
The effects of various compounds on the expression of m2 receptors on CHO cells transfected with DNA for the m2 receptor were investigated. Receptor numbers were assayed using tritiated QNB binding and subtracting non-specific binding. Compounds were dissolved in DMSO and DMSO was used as a control. Compounds were tested at a range of final concentrations. Compounds were also tested in the presence and absence of tamoxifen to try to distinguish an oestrogen receptor mediated mechanism.
Compounds are active when the effect on receptor expression given as a percentage increase compared to control is more than 15%.

## CC1CCC2(OC1)OC1CC3C4CC[C@@H]5CC(O)CC[C@]5(C)C4C(=O)C[C@]3(C)C1C2C (stereo partly shown)
Molar concentration 10^−5
  Activity (effect on expression of m2 receptors, percentage increase compared to control): Not Active

## CC1CCC2(OC1)OC1CC3C4CC[C@H]5CC(O)CC[C@]5(C)C4CC[C@]3(C)C1C2C (stereo partly shown)
Molar concentration 10^−5
  Activity (effect on expression of m2 receptors, percentage increase compared to control): Not Active Not Active
Molar concentration 10^−6
  Activity (effect on expression of m2 receptors, percentage increase compared to control): Not Active Not Active

## CC1CCC2(OC1)OC1CC3C4CC=C5CC(O)C[C@@H](O)[C@]5(C)C4CC[C@]3(C)C1C2C (stereo partly shown)
Molar concentration 10^−5
  Activity (effect on expression of m2 receptors, percentage increase compared to control): Not Active Not Active
Molar concentration 10^−6
  Activity (effect on expression of m2 receptors, percentage increase compared to control): Not Active Not Active

## CC1C(=O)OC2CC3C4CC[C@H]5CC(O)CC[C@]5(C)C4CC[C@]3(C)C21 (stereo partly shown)
Molar concentration 10^−5
  Activity (effect on expression of m2 receptors, percentage increase compared to control): Not Active

## CC1CCC2(OC1)OC1CC3C4CC=C5CC(O)CC[C@]5(C)C4CC[C@]3(C)C1C2C (stereo partly shown)
Molar concentration 10^−5
  Activity (effect on expression of m2 receptors, percentage increase compared to control): Not Active Not Active
Molar concentration 10^−6
  Activity (effect on expression of m2 receptors, percentage increase compared to control): Not Active Not Active

## CC1CCC2(OC1)OC1CC3C4CC[C@@H]5CC(O)[C@H](O)C[C@]5(C)C4CC[C@]3(C)C1C2C (stereo partly shown)
Molar concentration 10^−5
  Activity (effect on expression of m2 receptors, percentage increase compared to control): Not Active

## CC(CO)CCCC(C)C1C(O)CC2C3CC[C@H]4CC(O)CC[C@]4(C)C3CC[C@@]21C (stereo partly shown)
Molar concentration 10^−5
  Activity (effect on expression of m2 receptors, percentage increase compared to control): Active
